From ChEMBL document CHEMBL1201862, “PubChem BioAssay data set” (2004) come the findings set out here.

Values joined by “and” are separate entries in the source; they are usually repeats but may differ in a detail not shown here. Identical values can stand only once. Active and inactive are the calls of the source. Some results are limits rather than exact numbers.

Experiment [1] has as its target T1, Histone-lysine N-methyltransferase NSD2 (Homo sapiens, UniProt O96028).
T1 sequence (O96028 whole entry): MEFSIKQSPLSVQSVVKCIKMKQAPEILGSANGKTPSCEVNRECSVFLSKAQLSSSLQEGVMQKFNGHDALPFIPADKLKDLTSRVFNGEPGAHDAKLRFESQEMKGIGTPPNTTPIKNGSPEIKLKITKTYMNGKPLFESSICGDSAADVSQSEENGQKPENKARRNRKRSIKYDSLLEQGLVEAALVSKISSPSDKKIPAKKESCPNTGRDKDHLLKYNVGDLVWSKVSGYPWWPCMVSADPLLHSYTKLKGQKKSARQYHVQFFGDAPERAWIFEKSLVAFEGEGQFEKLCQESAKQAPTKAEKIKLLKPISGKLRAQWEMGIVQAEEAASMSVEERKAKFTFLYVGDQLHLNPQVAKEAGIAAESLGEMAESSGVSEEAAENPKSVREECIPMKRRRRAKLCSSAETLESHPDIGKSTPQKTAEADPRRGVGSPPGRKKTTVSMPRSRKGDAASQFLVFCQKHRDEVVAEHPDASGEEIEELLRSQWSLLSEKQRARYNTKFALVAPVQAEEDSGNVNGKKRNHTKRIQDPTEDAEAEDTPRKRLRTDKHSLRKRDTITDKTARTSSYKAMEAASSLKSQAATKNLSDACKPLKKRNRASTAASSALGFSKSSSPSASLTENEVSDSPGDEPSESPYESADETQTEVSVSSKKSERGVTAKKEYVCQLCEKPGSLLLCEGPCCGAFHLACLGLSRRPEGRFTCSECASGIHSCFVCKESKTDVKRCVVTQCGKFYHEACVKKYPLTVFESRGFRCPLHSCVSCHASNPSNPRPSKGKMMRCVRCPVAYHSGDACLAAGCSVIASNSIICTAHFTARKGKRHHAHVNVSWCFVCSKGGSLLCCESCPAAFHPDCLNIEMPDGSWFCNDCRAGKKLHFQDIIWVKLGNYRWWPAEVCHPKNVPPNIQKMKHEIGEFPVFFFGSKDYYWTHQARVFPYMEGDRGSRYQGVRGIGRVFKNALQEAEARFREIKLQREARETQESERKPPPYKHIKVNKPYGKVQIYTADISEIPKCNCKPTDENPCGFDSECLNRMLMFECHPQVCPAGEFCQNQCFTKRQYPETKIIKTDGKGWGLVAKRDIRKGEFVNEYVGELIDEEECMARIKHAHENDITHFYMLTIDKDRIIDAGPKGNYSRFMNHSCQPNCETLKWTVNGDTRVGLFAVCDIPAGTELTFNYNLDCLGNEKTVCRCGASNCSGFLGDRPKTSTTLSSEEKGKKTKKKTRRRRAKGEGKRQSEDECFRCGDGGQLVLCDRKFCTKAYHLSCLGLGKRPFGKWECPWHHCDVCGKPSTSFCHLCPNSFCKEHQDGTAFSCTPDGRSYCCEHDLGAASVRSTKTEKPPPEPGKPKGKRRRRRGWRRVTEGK
In kind it is biochemical.

The target in experiment [2] is T2, Tyrosyl-DNA phosphodiesterase 2 (Homo sapiens, UniProt O95551).
T2 sequence (O95551 whole entry): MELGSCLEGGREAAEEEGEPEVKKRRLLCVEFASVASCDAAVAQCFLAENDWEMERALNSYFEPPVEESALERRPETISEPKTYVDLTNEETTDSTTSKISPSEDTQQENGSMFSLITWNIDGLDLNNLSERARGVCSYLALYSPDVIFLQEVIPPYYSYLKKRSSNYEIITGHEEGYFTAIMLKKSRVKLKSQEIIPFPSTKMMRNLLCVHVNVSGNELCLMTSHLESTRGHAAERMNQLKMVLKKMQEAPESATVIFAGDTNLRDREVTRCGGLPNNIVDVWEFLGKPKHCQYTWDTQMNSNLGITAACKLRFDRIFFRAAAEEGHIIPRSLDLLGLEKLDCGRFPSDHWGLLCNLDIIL
Description: potency against TDP2 phosphodiesterase activity – biochemical, epi absorbance, IC50, dose response (AID 743297).

Experiment [3] has as its target T3, Sentrin-specific protease 8 (Homo sapiens, UniProt Q96LD8).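 Further: luminescence read-out of SENP8 inhibition, dose-response confirmation following an ultra-high-throughput screen.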
T3 sequence (Q96LD8 whole entry): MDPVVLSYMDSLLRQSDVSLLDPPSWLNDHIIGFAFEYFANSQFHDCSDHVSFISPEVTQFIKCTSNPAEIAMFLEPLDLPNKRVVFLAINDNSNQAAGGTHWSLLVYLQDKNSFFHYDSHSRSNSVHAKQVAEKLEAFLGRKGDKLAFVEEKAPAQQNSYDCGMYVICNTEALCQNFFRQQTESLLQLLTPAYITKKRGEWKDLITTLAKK
In kind it is functional.

Experiment [4] concerns the target Induced myeloid leukemia cell differentiation protein Mcl-1 (Homo sapiens, UniProt Q07820). In kind it is functional.

Induced myeloid leukemia cell differentiation protein Mcl-1, sequence (Q07820 whole entry): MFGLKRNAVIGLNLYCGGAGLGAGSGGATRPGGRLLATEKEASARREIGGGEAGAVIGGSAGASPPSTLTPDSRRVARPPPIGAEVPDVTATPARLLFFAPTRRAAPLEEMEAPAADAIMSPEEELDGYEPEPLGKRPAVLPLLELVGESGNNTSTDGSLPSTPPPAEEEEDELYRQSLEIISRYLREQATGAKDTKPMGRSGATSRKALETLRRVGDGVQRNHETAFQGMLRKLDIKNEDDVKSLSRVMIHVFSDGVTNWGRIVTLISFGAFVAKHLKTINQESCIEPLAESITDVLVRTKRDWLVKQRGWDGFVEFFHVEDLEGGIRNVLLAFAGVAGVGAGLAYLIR

With `Cc1oc2c(c1C(=O)c1ccccc1)C(=O)C(=O)c1ccccc1-2`, in experiment [1], the AC50 (as a rule, the midpoint of the concentration-response curve, whichever way the signal moves) is 14.3 µM (active). The IC50 – broadly, the point on the concentration scale where inhibition reaches its midpoint – is 14.2 µM (inactive) in experiment [2] and 12.8 µM (active) in experiment [3]. As to `O=C(O)COc1ccc(/C=N/NC(=O)c2ccc(-c3csc(Nc4ccc(Cl)cc4)n3)cc2)cc1`, the IC50 in experiment [4] was 0.886 µM (active). With `O=C1CCCC2=C1C1(O)C(=O)c3ccccc3C1(O)O2` (stereo not given), the IC50 in experiment [2] was 8.01 µM (active). For the molecule `COc1ccc(C(=O)Nc2nc3c(s2)Cc2cc(OC)ccc2-3)cc1`, the IC50 in experiment [4] was 3.75 µM (active); in experiment [2], 11.2 µM (inactive); in experiment [3], 2.29 µM (active).

With `CCN1/C(=C/c2ccc3cc(C)ccc3[n+]2CC)Sc2cc(C)c(C)cc21`, the AC50 in experiment [1] is 19.5 µM (active) and 8.3 µM (active). `COc1cc(NCCCNC(C)C)c2nccc(C)c2c1`: the AC50 in experiment [1] was 9.71 µM (active). Further, the IC50 in experiment [2] was > 128 µM (inactive). Consider `CC(/C=C1\SC(=S)N(NS(=O)(=O)c2ccccc2)C1=O)=C\c1ccccc1`, for which the IC50 was 20.6 µM (active) in experiment [4] and 2.86 µM (active) in experiment [3]. In experiment [1], the AC50 is 13 µM (active).

Take `O=C1C(Cl)=C(NCCN2CCCCC2)C(=O)c2ccccc21`: in experiment [1], the AC50 is 6.54 µM (active).
